Test results reported in ChEMBL document CHEMBL1130519, “BN 80245: An E-ring modified camptothecin with potent antiproliferative and topoisomerase I inhibitory activities” (Bioorg Med Chem Lett, 1997).

System: L1210
Assay: Compound was evaluated for cytotoxic activity on L1210 murine leukemia cells
Format: functional, cell-based
Details: Mus musculus

| Compound | IC50 [nM] |
| --- | --- |
| CC[C@@]1(O)C(=O)OCc2c1cc1n(c2=O)Cc2cc3c(CN(C)C)c(O)ccc3nc2-1 [TOPOTECAN] | 601 |
| CCC1(O)CC(=O)OCc2c1cc1n(c2=O)Cc2cc3ccccc3nc2-1 (stereo not drawn) | 16.2 |
| CC[C@@]1(O)C(=O)OCc2c1cc1n(c2=O)Cc2cc3ccccc3nc2-1 [CAMPTOTHECIN] | 126 |
